Patent US20210267203A1, “PESTICIDALLY ACTIVE AZOLE-AMIDE COMPOUNDS” (SYNGENTA PARTICIPATIONS AG, priority 2018, published 2021)

Columns and labels:
Type in all cases: in vivo
[1] = system: Spodoptera littoralis (Egyptian Cotton Leaf Worm); test: Example B10: Spodoptera littoralis (Egyptian cotton leaf worm), uptake by lettuce roots from agar, eggs; details: 144 h, test rate 12.5 ppm, lettuce root uptake, 6 days after infestation, read-out: effect in at least one of the three categories (mortality, anti-feeding, or growth inhibition)
How it was run: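 Compound mixed into agar from a 10,000 ppm DMSO stock; lettuce grown on it for 7 days for root uptake. Cut leaves infested with Spodoptera eggs; mortality, anti-feedant effect and growth inhibition scored against untreated samples 6 days after infestation.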

[2] = system: Diabrotica Balteata (Corn Root Worm); test: Example B1: Diabrotica balteata (corn root worm), maize sprouts sprayed, L2 larvae; details: 96 h, application rate 200 ppm, 4 days after infestation, read-out: effect in at least one of the two categories (mortality or growth inhibition)
How it was run: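 Maize sprouts on agar sprayed with aqueous dilutions of 10,000 ppm DMSO stocks, dried, then infested with 6–10 L2 larvae per well. Mortality and growth inhibition scored against untreated samples 4 days after infestation; rates of 200 ppm.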

[3] = system: Myzus persicae (Green Peach Aphid); test: Example B6: Myzus persicae (green peach aphid), feeding/contact activity; details: 144 h, application rate 200 ppm, 6 days after infestation
Description: Example B6: Myzus persicae (Green Peach Aphid):Feeding/Contact Activity
(§1) Sunflower leaf discs were placed onto agar in a 24-well microtiter plate and sprayed with aqueous test solutions prepared from 10,000 ppm DMSO stock solutions. After drying, the leaf discs were infested with an aphid population of mixed ages. The samples were assessed for mortality 6 days after infestation.

[4] = system: Myzus persicae (Green Peach Aphid); test: Example B13: activity against Myzus persicae (green peach aphid), 96-well sucrose solution; details: 120 h, application rate 50 ppm, 5 days after infestation
How it was run: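 Compounds, from 10,000 ppm DMSO stocks, mixed into sucrose solution in wells under stretched Parafilm, with aphids placed on the membrane in an inverted feeding setup. Mortality scored 5 days after infestation.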

[5] = system: Plutella xylostella (Diamondback Moth); test: Example B14: activity against Plutella xylostella (diamondback moth), 96-well artificial diet; details: 216 h, application rate 500 ppm, 9 days after infestation
How it was run: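 Diet in 96-well plates was treated with aqueous dilutions of 10,000 ppm DMSO stocks, dried, and infested with 30 eggs per well via a netted lid; hatching L1 larvae fed on the diet. Mortality scored 9 days after infestation.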

[6] = system: Plutella xylostella (Diamond Back Moth); test: Example B5: Plutella xylostella (diamond back moth), artificial diet, 24-well, eggs; details: 192 h, application rate 200 ppm, 8 days after infestation, read-out: effect in at least one of the two categories (mortality or growth inhibition)
How it was run: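 Artificial diet in 24-well plates treated with aqueous dilutions of 10,000 ppm DMSO stocks, dried, then infested with Plutella eggs. Mortality and growth inhibition scored against untreated samples 8 days after infestation; activity rated at 200 ppm application rate.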

[7] = system: Thrips tabaci (Onion Thrips); test: Example B12: Thrips tabaci (onion thrips), feeding/contact activity; details: 144 h, application rate 200 ppm, mixed ages, 6 days after infestation
Description: Example B12: Thrips tabaci (Onion Thrips) Feeding/Contact Activity
as §1, with “on” for “onto”, “in” for “in a”, “plates” for “plate”, “drying” for “drying,”, “a thrips” for “an aphid”

[8] = system: Myzus persicae (Green Peach Aphid); test: Example B7: Myzus persicae (green peach aphid), systemic activity; details: 144 h, test rate 24 ppm, pea seedling roots in test solution, 6 days
Description: Example B7: Myzus persicae (Green Peach Aphid), Systemic Activity
Roots of pea seedlings infested with an aphid population of mixed ages were placed directly into aqueous test solutions prepared from 10,000 DMSO stock solutions. The samples were assessed for mortality 6 days after placing seedlings into test solutions.

[9] = system: Myzus persicae (Green Peach Aphid); test: Example B8: Myzus persicae (green peach aphid), intrinsic activity; details: 120 h, test rate 12 ppm, sucrose solution, 24-well, 5 days after infestation
How it was run: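 Compounds diluted from 10,000 ppm DMSO stock were mixed with sucrose solution under stretched Parafilm in a sachet feeding setup, with aphid-infested pea seedlings placed on the membrane. Mortality was scored 5 days after infestation.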

[10] = system: Euschistus heros (Neotropical Brown Stink Bug); test: Example B2: Euschistus heros (neotropical brown stink bug), soybean leaves sprayed, N2 nymphs; details: 120 h, application rate 200 ppm, 5 days after infestation, read-out: effect in at least one of the two categories (mortality or growth inhibition)
How it was run: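 Soybean leaves on agar sprayed with aqueous test solutions made from 10,000 ppm DMSO stocks, dried, then infested with N2 nymphs. Mortality and growth inhibition scored versus untreated samples 5 days after infestation; activity threshold at 200 ppm.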

[11] = system: Spodoptera littoralis (Egyptian Cotton Leaf Worm); test: Example B9: Spodoptera littoralis (Egyptian cotton leaf worm), cotton leaf discs sprayed, L1 larvae; details: foliar, 72 h, application rate 200 ppm, 3 days after infestation
How it was run: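 Leaf discs on agar sprayed with aqueous dilutions from 10,000 ppm DMSO stock, dried, then infested with five L1 larvae. Mortality, anti-feeding and growth inhibition scored against untreated samples 3 days after infestation; control counted when any category exceeds untreated.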

[12] = system: Chilo suppressalis (Striped Rice Stemborer); test: Example B4: Chilo suppressalis (striped rice stemborer), artificial diet, L2 larvae; details: 144 h, application rate 200 ppm, 6 days after infestation
How it was run: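 L2 larvae (6-8 per well) placed on artificial diet treated with aqueous test solutions prepared from 10,000 ppm DMSO stocks, after drying. Mortality, anti-feeding and growth inhibition scored against untreated samples 6 days after infestation; control means at least one category exceeds untreated.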

[13] = system: Frankliniella occidentalis (Western Flower Thrips); test: Example B3: Frankliniella occidentalis (western flower thrips), feeding/contact activity; details: 168 h, application rate 200 ppm, mixed ages, 7 days after infestation
Description: Example B3: Frankliniella occidentalis (Western Flower Thrips):Feeding/Contact Activity
Sunflower leaf discs were placed on agar in 24-well microtiter plates and sprayed with aqueous test solutions prepared from 10,000 DMSO stock solutions. After drying the leaf discs were infested with a Frankliniella population of mixed ages. The samples were assessed for mortality 7 days after infestation.

CC(c1ncnn1-c1ncccn1)N(CC1CC1)C(=O)c1cc([S+]([O-])C(F)(F)F)cc(C(F)(F)F)c1 (centres unmarked) [P26, N-(cyclopropylmethyl)-N-[1-(2-pyrimidin-2-yl-1,2,4-triazol-3-yl)ethyl]-3-(trifluoromethyl)-5-(trifluoromethylsulfinyl)benzamide]
≥ 80%: percent effect (mortality, anti-feeding or growth inhibition) at 12.5 ppm [1] | percent effect (mortality or growth inhibition) at 200 ppm [2] | mortality at 200 ppm [3] | mortality at 50 ppm [4] | mortality at 500 ppm [5] | percent effect (mortality or growth inhibition) at 200 ppm [6] | mortality at 200 ppm [7] | mortality at 24 ppm [8] | mortality at 12 ppm [9] | percent effect (mortality or growth inhibition) at 200 ppm [10] | percent control (mortality, anti-feedant effect or growth inhibition) at 200 ppm [11] | percent control (mortality, anti-feedant effect or growth inhibition) at 200 ppm [12]

CC(c1ncnn1-c1ncccn1)N(CC1CC1)C(=O)c1cc(C(F)(F)F)cc(S(=O)(=O)C(F)(F)F)c1 (centres unmarked) [P89, N-(cyclopropylmethyl)-N-[1-(2-pyrimidin-2-yl-1,2,4-triazol-3-yl)ethyl]-3-(trifluoromethyl)-5-(trifluoromethylsulfonyl)benzamide]
≥ 80%: percent effect (mortality, anti-feeding or growth inhibition) at 12.5 ppm [1] | percent effect (mortality or growth inhibition) at 200 ppm [2] | mortality at 200 ppm [3] | mortality at 50 ppm [4] | mortality at 500 ppm [5] | percent effect (mortality or growth inhibition) at 200 ppm [6] | mortality at 200 ppm [7] | mortality at 24 ppm [8] | mortality at 12 ppm [9] | percent effect (mortality or growth inhibition) at 200 ppm [10] | percent control (mortality, anti-feedant effect or growth inhibition) at 200 ppm [11] | percent control (mortality, anti-feedant effect or growth inhibition) at 200 ppm [12]

CC(c1ncnn1-c1ncccn1)N(CC1CC1)C(=O)c1cc(C(F)(F)F)cc(C2(C#N)CC2)c1 (centres unmarked) [P46, 3-(1-cyanocyclopropyl)-N-(cyclopropylmethyl)-N-[1-(2-pyrimidin-2-yl-1,2,4-triazol-3-yl)ethyl]-5-(trifluoromethyl)benzamide]
≥ 80%: percent effect (mortality or growth inhibition) at 200 ppm [2] | mortality at 200 ppm [3] | mortality at 50 ppm [4] | mortality at 500 ppm [5] | percent effect (mortality or growth inhibition) at 200 ppm [6] | mortality at 200 ppm [7] | mortality at 24 ppm [8] | mortality at 12 ppm [9] | percent effect (mortality or growth inhibition) at 200 ppm [10] | percent control (mortality, anti-feedant effect or growth inhibition) at 200 ppm [11]

CC(c1ncnn1-c1ncccn1)N(CC1CC1)C(=O)c1cc(C(F)(F)F)cc(C(C)(C)C#N)c1 (centres unmarked) [P35, 3-(1-cyano-1-methyl-ethyl)-N-(cyclopropylmethyl)-N-[1-(2-pyrimidin-2-yl-1,2,4-triazol-3-yl)ethyl]-5-(trifluoromethyl)benzamide]
≥ 80%: percent effect (mortality or growth inhibition) at 200 ppm [2] | mortality at 50 ppm [4] | mortality at 500 ppm [5] | percent effect (mortality or growth inhibition) at 200 ppm [6] | mortality at 200 ppm [7] | mortality at 24 ppm [8] | mortality at 12 ppm [9] | percent effect (mortality or growth inhibition) at 200 ppm [10] | percent control (mortality, anti-feedant effect or growth inhibition) at 200 ppm [11]

Cc1nc(C(C)NC(=O)c2cc(C(F)(F)F)cc(C3(C#N)CC3)c2)n(-c2ncc(Br)cn2)n1 (centres unmarked) [P78, N-[1-[2-(5-bromopyrimidin-2-yl)-5-methyl-1,2,4-triazol-3-yl]ethyl]-3-(1-cyanocyclopropyl)-5-(trifluoromethyl)benzamide]
≥ 80%: percent effect (mortality or growth inhibition) at 200 ppm [2] | percent effect (mortality or growth inhibition) at 200 ppm [6] | mortality at 200 ppm [13] | mortality at 12 ppm [9] | percent effect (mortality or growth inhibition) at 200 ppm [10] | percent control (mortality, anti-feedant effect or growth inhibition) at 200 ppm [11] | percent control (mortality, anti-feedant effect or growth inhibition) at 200 ppm [12]

Cc1nc(C(C)NC(=O)c2cc(C(F)(F)F)cc(C(C)(C)C#N)c2)n(-c2ncccn2)n1 (centres unmarked) [P82, 3-(1-cyano-1-methyl-ethyl)-N-[1-(5-methyl-2-pyrimidin-2-yl-1,2,4-triazol-3-yl)ethyl]-5-(trifluoromethyl)benzamide]
≥ 80%: percent effect (mortality or growth inhibition) at 200 ppm [2] | mortality at 200 ppm [3] | percent effect (mortality or growth inhibition) at 200 ppm [6] | mortality at 24 ppm [8] | mortality at 12 ppm [9] | percent effect (mortality or growth inhibition) at 200 ppm [10] | percent control (mortality, anti-feedant effect or growth inhibition) at 200 ppm [11] | percent control (mortality, anti-feedant effect or growth inhibition) at 200 ppm [12]

CC(c1ncnn1-c1ncccn1)N(CC1CC1)C(=O)c1cc(C2CC2C(F)(F)F)cc(C(F)(F)F)c1 (centres unmarked) [P42, N-(cyclopropylmethyl)-N-[1-(2-pyrimidin-2-yl-1,2,4-triazol-3-yl)ethyl]-3-(trifluoromethyl)-5-[2-(trifluoromethyl)cyclopropyl]benzamide]
≥ 80%: percent effect (mortality, anti-feeding or growth inhibition) at 12.5 ppm [1] | percent effect (mortality or growth inhibition) at 200 ppm [2] | mortality at 200 ppm [3] | mortality at 50 ppm [4] | mortality at 500 ppm [5] | percent effect (mortality or growth inhibition) at 200 ppm [6] | mortality at 200 ppm [7] | mortality at 12 ppm [9] | percent effect (mortality or growth inhibition) at 200 ppm [10] | percent control (mortality, anti-feedant effect or growth inhibition) at 200 ppm [11] | percent control (mortality, anti-feedant effect or growth inhibition) at 200 ppm [12]

CC(c1ncnn1-c1ncccn1)N(CC1CC1)C(=O)c1cc(C2CC2(F)F)cc(C(F)(F)F)c1 (centres unmarked) [P50, N-(cyclopropylmethyl)-3-(2,2-difluorocyclopropyl)-N-[1-(2-pyrimidin-2-yl-1,2,4-triazol-3-yl)ethyl]-5-(trifluoromethyl)benzamide]
≥ 80%: percent effect (mortality, anti-feeding or growth inhibition) at 12.5 ppm [1] | percent effect (mortality or growth inhibition) at 200 ppm [2] | mortality at 200 ppm [3] | mortality at 50 ppm [4] | mortality at 500 ppm [5] | percent effect (mortality or growth inhibition) at 200 ppm [6] | mortality at 200 ppm [7] | mortality at 12 ppm [9] | percent control (mortality, anti-feedant effect or growth inhibition) at 200 ppm [11] | percent control (mortality, anti-feedant effect or growth inhibition) at 200 ppm [12]

CC(NC(=O)c1cc(C(F)(F)F)cc(C(C)(C)C#N)c1)c1ncnn1-c1ncccn1 (centres unmarked) [P84, 3-(1-cyano-1-methyl-ethyl)-N-[1-(2-pyrimidin-2-yl-1,2,4-triazol-3-yl)ethyl]-5-(trifluoromethyl)benzamide]
≥ 80%: percent effect (mortality or growth inhibition) at 200 ppm [2] | percent effect (mortality or growth inhibition) at 200 ppm [6] | mortality at 24 ppm [8] | mortality at 12 ppm [9] | percent effect (mortality or growth inhibition) at 200 ppm [10] | percent control (mortality, anti-feedant effect or growth inhibition) at 200 ppm [11] | percent control (mortality, anti-feedant effect or growth inhibition) at 200 ppm [12]
